From patent EP4796538A1, “NOVEL QUINOXALINE COMPOUNDS, MANUFACTURING METHOD THEREOF, AND USES THEREOF” (Gachon University of Industry-Academic Cooperation …, priority 2023, dated 2025)
Where two headings read alike, the source gives them in different places.

How the values were obtained:
[1] = system: BaF3 KIF5B-RET (V804M); experiment: Cell proliferation inhibition, Cell Counting Kit-8, Ba/F3 cell line; assay type: cell-based, rodent; settings: Mus musculus, 72 hours incubation, read-out: Cell Viability of BaF3 Cell lines (IC50 in uM) KIF5B-RET (V804M)
Experimental: To evaluate the inhibitory activity of the compounds represented by Formula I or Formula IV according to the present invention against RET mutation-driven cell growth in the Ba/F3 cell line and against cell growth in the non-small cell lung cancer cell line A-549, the following experiment was performed.
Each cell line was seeded in a 96-well plate at 1×10^4 cells/90 µL/well, and 10 µL/well of culture medium containing each example and intermediate compound or DMSO control at 9 concentrations (1 nM to 100 µM) prepared by 3-fold serial dilutions was added to achieve a final concentration of 0 to 100 µM, followed by incubation for 72 hours in a 37°C, 5% CO2 incubator. After 72 hours of incubation, the compound-treated plates were removed, and Cell Counting Kit-8 solution was added at 10 µL/well and mixed well. The plates were then incubated for 2 hours in a CO2 incubator at 37°C, and the absorbance was measured at 450 nm using a microplate reader.
The absorbance of the experimental group relative to that of the DMSO control group was converted to % survival, and the IC50 values representing the concentration required to inhibit cell growth by 50% were calculated. As a control compound, selpercatinib, a known RET inhibitor, was treated to calculate the IC50 values.

[2] = system: BaF3 KIF5B-RET (G810R); experiment: as above; assay type: cell-based, rodent; settings: Mus musculus, 72 hours incubation, read-out: Cell Viability of BaF3 Cell lines (IC50 in uM) KIF5B-RET (G810R)
[3] = biological target: T1, RET-NCOA4 (PTC3) (Homo sapiens, UniProt P07949); experiment: Kinase panel inhibition, radiolabeled [γ-33P] ATP (Reaction Biology Corp); assay type: biochemical; settings: compound at 1 uM; ATP 10 µM; read-out: % Enzyme Activity (relative to DMSO controls) RET-NCOA4 (PTC3)
T1 construct: purchased Reaction Biology Corp
Experimental: (§1) Using radiolabeled ATP ([γ-33P] ATP), the degree to which the substrate was replaced by a 33P-phosphorylated substrate was measured, and changes in kinase activity were determined from the measurement of the radiolabeled phosphorylated substrate.

[4] = biological target: T2, RET (G810S/M918T) (Homo sapiens, UniProt P07949, G810S/M918T); experiment: as above; assay type: biochemical; settings: compound at 10 uM, ATP 1 µM
T2 construct: purchased Reaction Biology Corp
Experimental: as §1

[5] = Data 1, read-out: % Enzyme Activity (relative to DMSO controls) RET (G810S/M918T) Data 1
[6] = Data 2, read-out: % Enzyme Activity (relative to DMSO controls) RET (G810S/M918T) Data 2

T2 sequence (P07949 29-1114 G810S/M918T): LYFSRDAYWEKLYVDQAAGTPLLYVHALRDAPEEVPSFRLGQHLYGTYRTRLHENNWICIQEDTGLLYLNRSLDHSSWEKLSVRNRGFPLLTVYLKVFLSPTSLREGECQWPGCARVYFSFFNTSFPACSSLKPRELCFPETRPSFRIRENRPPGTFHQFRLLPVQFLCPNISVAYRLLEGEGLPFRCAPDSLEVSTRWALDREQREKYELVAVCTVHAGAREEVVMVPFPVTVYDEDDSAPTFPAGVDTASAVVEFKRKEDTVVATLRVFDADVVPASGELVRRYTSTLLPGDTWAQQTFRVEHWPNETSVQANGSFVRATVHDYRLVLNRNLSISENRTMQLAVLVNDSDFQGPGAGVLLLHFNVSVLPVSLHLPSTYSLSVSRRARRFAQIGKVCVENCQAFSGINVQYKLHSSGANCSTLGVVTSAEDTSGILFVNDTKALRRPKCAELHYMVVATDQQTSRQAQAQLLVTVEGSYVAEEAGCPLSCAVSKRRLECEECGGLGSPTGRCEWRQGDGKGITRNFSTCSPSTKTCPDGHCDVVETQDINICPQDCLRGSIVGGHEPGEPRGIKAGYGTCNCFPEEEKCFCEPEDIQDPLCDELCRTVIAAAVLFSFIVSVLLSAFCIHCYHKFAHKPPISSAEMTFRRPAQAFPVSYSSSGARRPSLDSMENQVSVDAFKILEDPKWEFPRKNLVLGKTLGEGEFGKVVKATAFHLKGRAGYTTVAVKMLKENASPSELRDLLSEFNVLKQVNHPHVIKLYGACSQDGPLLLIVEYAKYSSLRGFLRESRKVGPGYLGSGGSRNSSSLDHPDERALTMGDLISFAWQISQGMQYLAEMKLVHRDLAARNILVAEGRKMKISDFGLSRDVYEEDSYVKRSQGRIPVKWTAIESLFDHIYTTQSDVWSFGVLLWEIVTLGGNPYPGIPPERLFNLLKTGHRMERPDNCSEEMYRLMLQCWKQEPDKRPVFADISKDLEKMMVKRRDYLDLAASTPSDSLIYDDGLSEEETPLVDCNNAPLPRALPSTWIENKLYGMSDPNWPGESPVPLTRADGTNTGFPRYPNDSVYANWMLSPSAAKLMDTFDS
T1 sequence (P07949 whole entry, looked up): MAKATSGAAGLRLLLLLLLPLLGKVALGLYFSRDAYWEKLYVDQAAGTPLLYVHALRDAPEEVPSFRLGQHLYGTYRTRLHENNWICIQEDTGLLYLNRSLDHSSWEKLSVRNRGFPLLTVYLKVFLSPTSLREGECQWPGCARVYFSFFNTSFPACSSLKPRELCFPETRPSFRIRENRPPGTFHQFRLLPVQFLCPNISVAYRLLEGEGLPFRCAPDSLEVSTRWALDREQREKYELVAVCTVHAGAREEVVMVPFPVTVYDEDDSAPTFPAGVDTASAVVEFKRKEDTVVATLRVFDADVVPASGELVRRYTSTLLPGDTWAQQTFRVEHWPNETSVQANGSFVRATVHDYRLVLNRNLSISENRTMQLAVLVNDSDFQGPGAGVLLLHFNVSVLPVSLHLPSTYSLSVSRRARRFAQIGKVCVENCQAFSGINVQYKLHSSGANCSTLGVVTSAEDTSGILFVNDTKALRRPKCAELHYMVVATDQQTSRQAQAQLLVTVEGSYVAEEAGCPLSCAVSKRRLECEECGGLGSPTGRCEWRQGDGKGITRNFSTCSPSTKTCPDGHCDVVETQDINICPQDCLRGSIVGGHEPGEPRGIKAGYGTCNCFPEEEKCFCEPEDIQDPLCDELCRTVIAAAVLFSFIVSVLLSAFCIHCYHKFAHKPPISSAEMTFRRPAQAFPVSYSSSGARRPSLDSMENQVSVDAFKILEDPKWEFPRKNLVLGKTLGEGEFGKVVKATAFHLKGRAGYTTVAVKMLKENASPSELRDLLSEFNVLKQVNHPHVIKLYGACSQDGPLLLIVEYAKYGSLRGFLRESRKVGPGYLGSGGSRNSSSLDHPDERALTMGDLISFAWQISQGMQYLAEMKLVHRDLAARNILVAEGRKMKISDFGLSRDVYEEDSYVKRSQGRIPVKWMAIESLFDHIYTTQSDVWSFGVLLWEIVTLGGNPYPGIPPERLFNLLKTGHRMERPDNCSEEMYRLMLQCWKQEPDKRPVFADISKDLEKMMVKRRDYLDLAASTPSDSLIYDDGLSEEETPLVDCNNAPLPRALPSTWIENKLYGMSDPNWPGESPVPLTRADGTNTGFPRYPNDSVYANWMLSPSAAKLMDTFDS

Row | Structure (SMILES) | IC50 [1] | IC50 [2] | remaining activity at 1 µM [3] | remaining activity at 10 µM [4, 5] | remaining activity at 10 µM [4, 6]
1 | Nc1cc(-c2ccc(N3CC(Oc4cccc(F)c4)C3)nc2)c2nccnc2c1 [Example 1, 8-(6-(3-(3-fluorophenoxy)azetidin-1-yl)pyridin-3-yl)quinoxalin-6-amine] | 1.02 µM | 0.88 µM | 1.11% | 0.22% | -0.72%
2 | CCNc1cc(-c2ccc(N3CC(Oc4cccc(F)c4)C3)nc2)c2nccnc2c1 [Example 3, N-ethyl-8-(6-(3-(3-fluorophenoxy)azetidin-1-yl)pyridin-3-yl)quinoxalin-6-amine] | 0.12 µM | 1.09 µM | 16.8% | -0.47% | -0.51%
